The source of these data is US4831026A, “2-oxa-isocephem compounds, compositions containing same and processes of using” (Otsuka Pharmaceutical Co., Ltd., priority 1985, dated 1989).

One experiment relates to P. mirabilis 1287. Nature of the experiment: Antimicrobial activity test: MIC by the agar plate dilution method, P. mirabilis 1287. It counts as cell-based. In outline:
(§1)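 Bacteria were standardised to 1×10^6 cells/ml (optical density 0.07-0.16 at 600 mμ) and then tested by agar plate dilution. The minimal inhibitory concentration was recorded.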

The subject of another experiment is S. aureus FDA-209-p. The experiment in a line: Antimicrobial activity test: MIC by the agar plate dilution method, S. aureus FDA-209-p. The settings on record: inoculum 1×10^6 cells/ml. The class given is cell-based, Staphylococcus aureus. An outline of the steps:
as §1

The subject of the next experiment is E. coli NIHJ. The experiment in a line: Antimicrobial activity test: MIC by the agar plate dilution method, E. coli NIHJ. It counts as cell-based. The settings on record: inoculum 1×10^6 cells/ml. As for the experimental part:
In order to investigate the in vitro activity of the under-mentioned compounds against various bacteria, the minimal inhibitory concentration (MIC) values were determined by the agar plate dilution method [see Chemotherapy, 22, 1126-1128 (1974)].
Each test inoculum was adjusted to 1×10^6 cells/ml (O.D., 600 mμ: 0.07-0.16).

The test system of another experiment is E. coli No. 29. The experiment in a line: Antimicrobial activity test: MIC by the agar plate dilution method, E. coli No. 29. It counts as cell-based. In outline:
as §1

The test system of another experiment is P. aeruginosa NCTC-10490. Nature of the experiment: Antimicrobial activity test: MIC by the agar plate dilution method, P. aeruginosa NCTC-10490. The class given is cell-based. The settings on record: inoculum 1×10^6 cells/ml. In outline:
as §1

Another experiment relates to S. marcescens IFO-12648. The experiment in a line: Antimicrobial activity test: MIC by the agar plate dilution method, S. marcescens IFO-12648. It counts as cell-based. In outline: as §1
In the next experiment the test system is K. pneumoniae NCTC-9632. The experiment in a line: Antimicrobial activity test: MIC by the agar plate dilution method, K. pneumoniae NCTC-9632. The class given is cell-based. The settings on record: inoculum 1×10^6 cells/ml. An outline of the steps: as §1
In a further experiment the test system is M. morganii ATCC-25830. The experiment in a line: Antimicrobial activity test: MIC by the agar plate dilution method, M. morganii ATCC-25830. The class given is cell-based. To be noted: inoculum 1×10^6 cells/ml. In outline:
as §1

[1] abbreviates: P. mirabilis 1287, inoculum 1×10^6 cells/ml.
The mark [2] stands for this setting: E. coli No. 29, inoculum 1×10^6 cells/ml.
Setting [3] is: S. marcescens IFO-12648, inoculum 1×10^6 cells/ml.

Where two headings read alike, the source gives them in different places.

As a reminder, the MIC is the smallest concentration in the dilution series that meets the test's criterion for growth inhibition. Low readings indicate a more susceptible organism, high ones a less susceptible organism.

For “7-[2-(2-Chloroacetamidothiazol-4-yl)-2-ethoxyiminoacetamido]-3-[(1,3,4-thiadiazol-2-yl)thiomethyl-]-Δ^3 -O-2-isocephem-4-carboxylic acid (syn-isomer) [Example 28]”, the MIC is no more than 0.025 µg/mL in the experiment on P. mirabilis 1287 (setting [1]); 0.78 µg/mL against S. aureus FDA-209-p; no more than 0.025 µg/mL with E. coli NIHJ; no more than 0.025 µg/mL with E. coli No. 29 (setting [2]); 1.56 µg/mL against P. aeruginosa NCTC-10490; 0.2 µg/mL in the experiment with S. marcescens IFO-12648 (setting [3]). Further, the minimum inhibitory concentration (MIC) in the experiment on K. pneumoniae NCTC-9632 is 0.05 µg/mL; with M. morganii ATCC-25830, no more than 0.025 µg/mL.

“7-[2-(2-Formamidothiazol-4-yl)-2-methylthiomethoxyiminoacetamido]-3-[(1,3,4-thiadiazol-2-yl)thiomethyl]-Δ^3 -O-2-isocephem-4-carboxylic acid (syn-isomer) [Example 45]”: the MIC with P. mirabilis 1287 (setting [1]) is 0.2 µg/mL; in the experiment with S. aureus FDA-209-p, 0.39 µg/mL; with E. coli NIHJ it was 0.39 µg/mL; in the experiment with E. coli No. 29, 0.39 µg/mL; against P. aeruginosa NCTC-10490, 6.25 µg/mL; with S. marcescens IFO-12648, 0.78 µg/mL. For the same substance, the minimal inhibitory concentration (MIC) with K. pneumoniae NCTC-9632 and in the experiment with M. morganii ATCC-25830 was 0.39 µg/mL each time.

For the substance “7-[2-(2-Trifluoroacetamidothiazol-4-yl)-2methoxyiminoacetamido]-3-[(carbamoyloxy)methyl]-Δ^3 -O-2-isocephem-4-carboxylic acid (syn-isomer) [No. 5]”, the MIC was 0.39 µg/mL against P. mirabilis 1287; greater than 100 µg/mL in the experiment on S. aureus FDA-209-p; 0.78 µg/mL with E. coli NIHJ; 0.78 µg/mL in the experiment with E. coli No. 29; 100 µg/mL against P. aeruginosa NCTC-10490; 0.39 µg/mL in the experiment on S. marcescens IFO-12648. The MIC in the experiment with K. pneumoniae NCTC-9632 and with M. morganii ATCC-25830 was 0.2 µg/mL each time.

Consider “(6S,7S)-7-[2-(2-Aminothiazol-4-yl)-2cyanomethoxyiminoacetamido]-3-[(1,3,4- thiadiazol-2-yl)thiomethyl]-Δ^3 -O-2-isocephem-4carboxylic acid trifluoroacetate (syn-isomer) [No. 16]”, for which the minimum inhibitory concentration (MIC) against P. mirabilis 1287 (setting [1]) worked out at 0.1 µg/mL; with S. aureus FDA-209-p, 0.39 µg/mL; in the experiment on E. coli NIHJ, 0.39 µg/mL; in the experiment with E. coli No. 29 (setting [2]) it was 0.2 µg/mL; in the experiment on P. aeruginosa NCTC-10490, 0.39 µg/mL; against S. marcescens IFO-12648 it was 0.78 µg/mL. Also, the MIC stood at 0.39 µg/mL against K. pneumoniae NCTC-9632 and 0.05 µg/mL against M. morganii ATCC-25830.

As for “Benzhydryl 7-[2-(2-aminothiazol-4-yl)-2-cyclopropylmethyloxyiminoacetamido]-3-[(1,2,3-thiadiazol-5-yl)thiomethyl]-Δ^3 -O-2-isocephem-4-carboxylate (syn-isomer) [Example 56]”, the MIC in the experiment on P. mirabilis 1287 (setting [1]) is 0.2 µg/mL; in the experiment on S. aureus FDA-209-p, 0.05 µg/mL; in the experiment with E. coli NIHJ, 0.2 µg/mL; against E. coli No. 29 (setting [2]) it was 0.1 µg/mL; with P. aeruginosa NCTC-10490, 0.39 µg/mL; with S. marcescens IFO-12648 it was 0.78 µg/mL. The MIC against K. pneumoniae NCTC-9632 came to 0.39 µg/mL; in the experiment on M. morganii ATCC-25830, 0.05 µg/mL.

As to “Benzhydryl 7-[2-(2-formamidothiazol-4-yl)-2-ethoxyiminoacetamido]-3-[(1,3,4-thiadiazol-2-yl)thiomethyl]-Δ^3 -O-2-isocephem-4-carboxylate (syn-isomer) [Example 30]”, the MIC worked out at 0.2 µg/mL in the experiment with P. mirabilis 1287 (setting [1]); 0.1 µg/mL against S. aureus FDA-209-p; 0.05 µg/mL in the experiment on E. coli NIHJ; 0.1 µg/mL in the experiment on E. coli No. 29 (setting [2]); 25 µg/mL with P. aeruginosa NCTC-10490; 0.39 µg/mL against S. marcescens IFO-12648. Also, the MIC with K. pneumoniae NCTC-9632 is 0.2 µg/mL; in the experiment with M. morganii ATCC-25830, 0.39 µg/mL.

As for “Benzyl 7-[2-(2-chloroacetamidothiazol-4-yl)-2-ethoxyiminoacetamido]-3-[(1,3,4-thiadiazol-2-yl)thiomethyl]-Δ^3 -O-2-isocephem-4-carboxylate (syn-isomer) [Example 27]”, the MIC against P. mirabilis 1287 (setting [1]) turned out to be 0.1 µg/mL; against S. aureus FDA-209-p, 0.1 µg/mL; in the experiment with E. coli NIHJ it was 0.10 µg/mL; against E. coli No. 29 (setting [2]), 0.1 µg/mL; in the experiment with P. aeruginosa NCTC-10490, 0.2 µg/mL; in the experiment on S. marcescens IFO-12648 (setting [3]) it was 0.2 µg/mL. Besides, the MIC stood at 0.2 µg/mL against K. pneumoniae NCTC-9632 and 0.1 µg/mL in the experiment on M. morganii ATCC-25830.
